Biological target: MAGL (Homo sapiens (Human), UniProt Q99685)
Experiment: 2-AG assay: MAGL inhibitory activity by hydrolysis of 2-arachidonoylglycerol to arachidonic acid (mass spectrometry)
Assay type: biochemical
Conditions: measured in 2-AG assay (footnote [b]); 8 μM 2-arachidonoylglycerol
Experimental: Alternatively, compounds were profiled for MAGL inhibitory activity by determining the enzymatic activity by following the hydrolysis of the natural substrate 2-arachidonoylglycerol resulting in arachidonic acid, which can be followed by mass spectrometry. This assay is hereinafter abbreviated “2-AG assay”.
A C18 SPE cartridge (G9205A) was used in an acetonitrile/water liquid setup. […] The activity of the compounds was calculated based on the ratio of intensities [arachidonic acid/d8-arachidonic acid].

Sequence of MAGL (Q99685 whole entry, species assumed): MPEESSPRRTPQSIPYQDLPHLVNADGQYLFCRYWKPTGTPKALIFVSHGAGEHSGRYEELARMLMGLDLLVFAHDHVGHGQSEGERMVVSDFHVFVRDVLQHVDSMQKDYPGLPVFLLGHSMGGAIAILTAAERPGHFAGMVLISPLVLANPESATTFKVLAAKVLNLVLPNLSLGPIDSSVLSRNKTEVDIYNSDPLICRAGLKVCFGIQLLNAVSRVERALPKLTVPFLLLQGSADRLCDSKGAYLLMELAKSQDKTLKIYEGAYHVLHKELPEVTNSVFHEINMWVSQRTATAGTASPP

SMILES	IC50
O=C1CO[C@H]2CCN(C(=O)N3CCC(Oc4ccc(C(F)(F)F)c(N5CCOCC5)c4)CC3)C[C@H]2N1 [Example 206]	23 nM
CC1C(Oc2cc(C(F)(F)F)ccc2Br)CCN1C(=O)N1CC[C@@H]2OCC(=O)N[C@@H]2C1 (some centres unmarked) [Example 246]	1000 nM
O=C1CO[C@H]2CCN(C(=O)N3CCC(OCc4ccc(C(F)(F)F)cc4F)(C(F)(F)F)C3)C[C@H]2N1 (some centres unmarked) [Example 245]	1700 nM
CC(=O)c1cc(C(F)(F)F)ccc1CCC1CN(C(=O)N2CC[C@@H]3OCC(=O)N[C@@H]3C2)C1 [Example 220]	3 nM
Cc1cc(C(F)(F)F)ccc1OC1CCN(C(=O)N2CC[C@@H]3OCC(=O)N[C@@H]3C2)CC1 [Example 122]	8 nM
Cc1c(COC2CN(C(=O)N3CC[C@@H]4OCC(=O)N[C@@H]4C3)C2C)cccc1C(F)(F)F (some centres unmarked) [Example 253]	10 nM
O=C1CO[C@H]2CCN(C(=O)N3CCC(Cc4nc5ccncc5o4)CC3)C[C@H]2N1 [Example 124]	1040 nM
O=C1CO[C@H]2CCN(C(=O)N3CCC(Oc4ccc(C(F)(F)F)c(-n5cccn5)c4)CC3)C[C@H]2N1 [Example 209]	74 nM
O=C1CO[C@H]2CCN(C(=O)N3CCC(Oc4ccc(Cl)c(-c5ccc(Cl)cc5)c4F)CC3)C[C@H]2N1 [Example 212]	3 nM
O=C1CO[C@H]2CCN(C(=O)N3CCC(Cc4ccc(C(F)(F)F)cc4F)CC3)C[C@H]2N1 [Example 92]	14 nM
O=C1CO[C@H]2CCN(C(=O)N3CC(OCc4ccc(C(F)(F)F)c(Oc5ccc(F)cc5)n4)C3)C[C@H]2N1 [Example 243]	10 nM
O=C1CO[C@H]2CCN(C(=O)N3CCC(Cc4ccc(C(F)(F)F)cc4OCC(F)(F)F)CC3)C[C@H]2N1 [Example 202]	54 nM
C[C@@H]1[C@@H](Oc2cc(C(F)(F)F)ccc2Br)CCN1C(=O)N1CC[C@@H]2OCC(=O)N[C@@H]2C1 [Example 247]	1100 nM
O=C1CO[C@H]2CCN(C(=O)N3CCC(Cc4c(F)cc(C(F)(F)F)cc4F)CC3)C[C@H]2N1 [Example 211]	17 nM
O=C1CO[C@H]2CCN(C(=O)N3CC(OCc4ccc(OC(F)(F)F)c(F)c4)C3)C[C@H]2N1 [Example 288]	53 nM

Other lines, results leading:

IC50	SMILES
15 nM	O=C1CO[C@H]2CCN(C(=O)N3CC(OCC4(c5ccc(Cl)cc5Cl)CC4)C3)C[C@H]2N1 [Example 241]
455 nM	O=C1CO[C@H]2CCN(C(=O)N3CC(Oc4cc(Cl)cc(N5CC6(CCC6)C5)c4)C3)C[C@H]2N1 [Example 277, (+)-(4aR,8aS)-6-[3-[3-(2-Azaspiro[3.3]heptan-2-yl)-5-chloro-phenoxy]azetidine-1-carbonyl]-4,4a,5,7,8,8a-hexahydropyrido[4,3-b][1,4]oxazin-3-one]
10 nM	O=C1CO[C@H]2CCN(C(=O)N3CCC(Oc4ccc(C(F)(F)F)c(Cl)c4)CC3)C[C@H]2N1 [Example 255]
11 nM	O=C1CO[C@H]2CCN(C(=O)N3CC(Oc4ccc(Cl)c(C5CC5)c4)C3)C[C@H]2N1 [Example 256]
50 nM	O=C1CO[C@H]2CCN(C(=O)N3CCC(Oc4ccc(Cl)c(-n5cncn5)c4)CC3)C[C@H]2N1 [Example 207]
48 nM	O=C1CO[C@H]2CCN(C(=O)N3CC(Oc4ccc(C(F)(F)F)c(Cl)c4)C3)C[C@H]2N1 [Example 261]
3 nM	O=C1CO[C@H]2CCN(C(=O)N3CCC(Oc4ccc(C(F)(F)F)c(C5CC5)c4)CC3)C[C@H]2N1 [Example 208]
24 nM	O=C1CO[C@H]2CCN(C(=O)N3CC(Oc4ccc(C(F)(F)F)c(N5CC6(C5)CC(F)(F)C6)c4)C3)C[C@H]2N1 [Example 269, (+)-(4aR,8aS)-6-[3-[3-(6,6-Difluoro-2-azaspiro[3.3]heptan-2-yl)-4-(trifluoromethyl)phenoxy]azetidine-1-carbonyl]-4,4a,5,7,8,8a-hexahydropyrido[4,3-b][l,4]oxazin-3-one]

From patent US11802133B2, “Heterocyclic compounds as monoacylglycerol lipase inhibitors” (Hoffmann-La Roche Inc., priority 2018, dated 2023)
